Results taken from patent US20190127359A1, “Compounds & Methods for the Enhanced Degradation of Targeted Proteins & Other Polypeptides by an E3 Ubiquitin Ligase” (YALE UNIVERSITY, priority 2012, published 2019).

The compounds below were run against VHL (Homo sapiens, UniProt P40337) (assay: Fluorescence polarization competition assay (HIF-1α peptide FP displacement)). Conditions: 10% DMSO.

| IC50 (μM) 10% DMSO | Compound |
| --- | --- |
| Inactive | CS(=O)(=O)N1C[C@H](O)C[C@H]1C(=O)NCCc1ccc(O)cc1 [VL006] |
| Inactive | CS(=O)(=O)N1C[C@H](O)C[C@H]1C(=O)NCc1cccc(Cl)c1 [VL007] |
| Inactive | Cc1ccc(S(=O)(=O)N2C[C@H](O)C[C@H]2C(=O)Nc2ccc(Br)cc2F)cc1 [VL009] |
| Inactive | CS(=O)(=O)N1C[C@H](O)C[C@H]1C(=O)Nc1ccc(Br)cc1F [VL010] |

Same assay, conditions: IC50 (μM) 10% DMSO, 10% DMSO

| IC50 [µM] | Compound |
| --- | --- |
| > 1000 | O=C(Nc1ccc(Br)cc1F)[C@@H]1C[C@@H](O)CN1S(=O)(=O)c1ccc2ccccc2c1 [VL001] |
| > 1000 | Cc1ccc(S(=O)(=O)N2C[C@H](O)C[C@H]2C(=O)NCCc2ccc(O)cc2)cc1 [VL003] |
| > 1000 | O=C(NCCc1ccc(O)cc1)[C@@H]1C[C@@H](O)CN1C(=O)Cc1nnn[nH]1 [VL005] |
| > 1000 | Cc1ccc(S(=O)(=O)N2C[C@H](O)C[C@H]2C(=O)NCc2cccc(Cl)c2)cc1 [VL008] |
| > 1000 | Cc1cc(CC(=O)N2C[C@H](O)C[C@H]2C(=O)Nc2ccc(Br)cc2F)on1 [VL011] |
| > 1000 | O=C(NCc1cccc(Cl)c1)[C@@H]1C[C@@H](O)CN1C(=O)Cc1nnn[nH]1 [VL012] |
| 240 | O=C(NCc1cccc(Cl)c1)[C@@H]1C[C@@H](O)CN1S(=O)(=O)c1cccc([N+](=O)[O-])c1 [VL013] |
| 4.7 | Cc1cc(CC(=O)N2C[C@H](O)C[C@H]2C(=O)NCc2ccc(-c3ccccc3)cc2)on1 [VL014] |
| > 1000 | Cc1cc(CC(=O)N2C[C@H](O)C[C@H]2C(=O)NCCN2CCOCC2)on1 [VL015] |
| ~730 | Cc1cc(CC(=O)N2C[C@H](O)C[C@H]2C(=O)NCc2cccs2)on1 [VL016] |
| ~510 | Cc1cc(CC(=O)N2C[C@H](O)C[C@H]2C(=O)NCc2ccc3c(c2)OCO3)on1 [VL017] |
| 280 | Cc1cc(CC(=O)N2C[C@H](O)C[C@H]2C(=O)NCc2ccc(N(C)C)cc2)on1 [VL018] |
| 451 | Cc1cc(CC(=O)N2C[C@H](O)C[C@H]2C(=O)NCc2ccccn2)on1 [VL019] |
| 295 | Cc1cc(CC(=O)N2C[C@H](O)C[C@H]2C(=O)NCc2ccc(F)cc2)on1 [VL020] |
| 36 | Cc1cc(CC(=O)N2C[C@H](O)C[C@H]2C(=O)NCc2ccc(Cl)cc2)on1 [VL021] |
| ~870 | Cc1cc(CC(=O)N2C[C@H](O)C[C@H]2C(=O)NCc2cccc(C(F)(F)F)c2)on1 [VL022] |
| 589 | Cc1cc(CC(=O)N2C[C@H](O)C[C@H]2C(=O)NCc2ccc(Cl)c(C(F)(F)F)c2)on1 [VL023] |
| 511 | COc1cccc(CNC(=O)[C@@H]2C[C@@H](O)CN2C(=O)Cc2cc(C)no2)c1 [VL024] |
| 517 | COc1ccc(CNC(=O)[C@@H]2C[C@@H](O)CN2C(=O)Cc2cc(C)no2)cc1OC [VL025] |
| > 1000 | CNC(=O)c1cc(Oc2ccc(NC(=O)[C@@H]3C[C@@H](O)CN3C(=O)Cc3cc(C)no3)cc2)ccn1 [VL027] |
| 210 | Cc1cc(CC(=O)N2C[C@H](O)C[C@H]2C(=O)NCc2ccccc2Cl)on1 [VL028] |
| 24.9 | Cc1cc(CC(=O)N2C[C@H](O)C[C@H]2C(=O)NCc2ccc(Br)cc2)on1 [VL029] |
| 215 | Cc1cc(CC(=O)N2C[C@H](O)C[C@H]2C(=O)NCc2ccc(Cl)c(Cl)c2)on1 [VL030] |
| 68.5 | Cc1cc(CC(=O)N2C[C@H](O)C[C@H]2C(=O)NCc2ccc(C(C)(C)C)cc2)on1 [VL031] |

| IC50 [µM] | Compound |
| --- | --- |
| 639 | Cc1cc(CC(=O)N2C[C@H](O)C[C@H]2C(=O)N[C@@H](C)c2ccccc2)on1 [VL032] |
| > 1000 | Cc1cc(CC(=O)N2C[C@H](O)C[C@H]2C(=O)N[C@H](C)c2ccccc2)on1 [VL033] |
| 744 | Cc1cc(CC(=O)N2C[C@H](O)C[C@H]2C(=O)NCc2cccnc2)on1 [VL036] |
| 88.8 | Cc1cc(CC(=O)N2C[C@H](O)C[C@H]2C(=O)NCc2ccncc2)on1 [VL037] |
| > 1000 | Cc1cc(CC(=O)N2C[C@H](O)C[C@H]2C(=O)N2CCc3ccccc3C2)on1 [VL039] |
| > 1000 | COc1ccccc1N1CCN(C(=O)[C@@H]2C[C@@H](O)CN2C(=O)Cc2cc(C)no2)CC1 [VL043] |
| 286 | Cc1cc(CC(=O)N2C[C@H](O)C[C@H]2C(=O)NCc2ccc(C)o2)on1 [VL044] |
| 146 | Cc1cc(CC(=O)N2C[C@H](O)C[C@H]2C(=O)NCc2ccc(OC(F)(F)F)cc2)on1 [VL045] |
| 215 | Cc1cc(CC(=O)N2C[C@H](O)C[C@H]2C(=O)NCc2ccc(C(F)(F)F)cc2)on1 [VL046] |
| 24.8 | Cc1cc(CC(=O)N2C[C@H](O)C[C@H]2C(=O)NCc2ccc([N+](=O)[O-])cc2)on1 [VL048] |
| 15.1 | Cc1cc(CC(=O)N2C[C@H](O)C[C@H]2C(=O)N[C@@H](C)c2ccc([N+](=O)[O-])cc2)on1 [VL049] |
| 332 | NC(=O)CCC(=O)N1C[C@H](O)C[C@H]1C(=O)NCc1ccc(Cl)cc1 [VL050] |
| > 1000 | N#CCC(=O)N1C[C@H](O)C[C@H]1C(=O)NCc1ccc(Cl)cc1 [VL051] |
| > 1000 | O=C(NCc1ccc(Cl)cc1)[C@@H]1C[C@@H](O)CN1C(=O)Cc1ccco1 [VL052] |
| > 1000 | O=C(NCc1ccc(Cl)cc1)[C@@H]1C[C@@H](O)CN1C(=O)Cc1cccs1 [VL053] |
| 140 | O=C(NCc1ccc(Cl)cc1)[C@@H]1C[C@@H](O)CN1C(=O)c1cccc(Cl)c1 [VL054] |
| 910 | O=C(NCc1ccc(Cl)cc1)[C@@H]1C[C@@H](O)CN1C(=O)Cc1cccc(Br)c1 [VL055] |
| 939 | N#Cc1ccc(CC(=O)N2C[C@H](O)C[C@H]2C(=O)NCc2ccc(Cl)cc2)cc1 [VL056] |
| > 1000 | COc1cc(/C=C/C(=O)N2C[C@H](O)C[C@H]2C(=O)NCc2ccc(Cl)cc2)cc(OC)c1O [VL057] |
| > 1000 | CS(=O)(=O)c1ccc(CC(=O)N2C[C@H](O)C[C@H]2C(=O)NCc2ccc(Cl)cc2)cc1 [VL058] |
| 205 | N#Cc1cc(Br)cc(C(=O)N2C[C@H](O)C[C@H]2C(=O)NCc2ccc(Cl)cc2)c1 [VL059] |
| > 1000 | O=C(NCc1ccc(Cl)cc1)[C@@H]1C[C@@H](O)CN1C(=O)c1cc(-c2ccccc2)on1 [VL060] |
| 419 | O=C(NCc1ccc(Cl)cc1)[C@@H]1C[C@@H](O)CN1C(=O)c1cc(C2CC2)on1 [VL061] |

| Compound | IC50 [µM] |
| --- | --- |
| Cc1cc(CC(=O)N2C[C@H](O)C[C@H]2C(=O)NCCc2ccc(O)cc2)on1 [VL002, (2S,4R)-4-hydroxy-N-(4-hydroxyphenethyl)-1-(2-(3-methylisoxazol-5-yl)acetyl)pyrrolidine-2-carboxamide] | 241 |
| Cc1cc(CC(=O)N2C[C@H](O)C[C@H]2C(=O)NCc2cccc(Cl)c2)on1 [VL004, (2S,4R)—N-(3-chlorobenzyl)-4-hydroxy-1-(2-(3-methylisoxazol-5-yl)acetyl)pyrrolidine-2-carboxamide] | 123 |

Same assay, conditions: Table 1A, binding of initial ligands to VHL; average of three independent trials, each in triplicate

| Compound | IC50 [µM] |
| --- | --- |
| Cc1cc(CC(=O)N2C[C@H](O)C[C@H]2C(=O)NCc2cccc(Cl)c2)on1 [Compound 1] | 117 |
| Cc1cc(CC(=O)N2C[C@H](O)C[C@H]2C(=O)NCCc2ccc(O)cc2)on1 [Compound 2] | 120 |

Same assay, conditions: fluorescence polarization, result in words

| Compound | displacement of the fluorescent HIF-1α peptide |
| --- | --- |
| Cc1cc(CC(=O)N2C[C@H](O)C[C@H]2C(=O)NCc2cccc(Cl)c2)on1 [Compound 1] | able to displace the fluorescent peptide albeit at high concentrations |
| Cc1cc(CC(=O)N2C[C@H](O)C[C@H]2C(=O)NCCc2ccc(O)cc2)on1 [Compound 2] | able to displace the fluorescent peptide albeit at high concentrations |

Same assay, conditions: read-out: IC50 (μM) 1% DMSO; 1% DMSO

| Compound | IC50 [µM] |
| --- | --- |
| Cc1cc(CC(=O)N2C[C@H](O)C[C@H]2C(=O)NCCc2ccc(O)cc2)on1 [VL002, (2S,4R)-4-hydroxy-N-(4-hydroxyphenethyl)-1-(2-(3-methylisoxazol-5-yl)acetyl)pyrrolidine-2-carboxamide] | 120 |
| Cc1cc(CC(=O)N2C[C@H](O)C[C@H]2C(=O)NCc2cccc(Cl)c2)on1 [VL004, (2S,4R)—N-(3-chlorobenzyl)-4-hydroxy-1-(2-(3-methylisoxazol-5-yl)acetyl)pyrrolidine-2-carboxamide] | 117 |
| Cc1cc(CC(=O)N2C[C@H](O)C[C@H]2C(=O)NCc2ccccc2)on1 [VL034] | 130 |
